Here are results for 16 compounds from patent US7531663B2, “3-guanidinocarbonyl-1-heteroaryl-indole derivatives, preparation process, their use as medicaments, and pharmaceutical compositions comprising them” (sanofi-aventis Deutschland GmbH, priority 2003, dated 2009).

For orientation: IC50 means the point on the concentration scale where inhibition reaches its midpoint. A low value points to greater potency in that assay. One may read the melting point as the temperature of the solid-liquid transition.

One data set has as its target T1, NHE1 (Homo sapiens, UniProt P19634).
T1 construct: expressed in transfected cells; host or cells: LAP-1 (parental line without endogenous NHE activity), G418-selected transfectants
The data set can be described thus: NHE inhibition FLIPR test (intracellular pH recovery, BCECF) in transfected LAP-1 cell lines. Conditions: transfected LAP-1 cell line expressing NHE1 subtype, BCECF fluorescence, pHi recovery after acidification. The format is cell-based. The method, then: The NHE inhibitory activities (IC50 values) of the compounds according to the invention were determined by a FLIPR test.
The test is performed in the FLIPR (Fluorescent Imaging Plate Reader) equipped with clear-bottomed and black-walled 96-well microtitration plates.
The growth medium for the transfected cells (Iscove+10% foetal calf serum) also comprises G418 as selection antibiotic to ensure the presence of transfected sequences.
The actual test begins by eliminating the growth medium and adding 100 μl of loading buffer per well (5 μM of BCECF-AM [2′,7′-bis(2-carboxyethyl)-5-(6)-carboxyfluoresceine acetoxymethyl ester] in 20 mM of NH4Cl 115 mM of choline chloride, 1 mM of CaCl2, 5 mM of KCl, 20 mM of HEPES and 5 mM of glucose; pH 7.4 (adjusted with KOH). The cells are then incubated for 20 minutes at 37° C. This incubation results in the loading of the fluorescent dye into the cells, the fluorescence intensity of which depends on the pHi, and on the NH4Cl, which results in a slight basification of the cells.
The precursor BCECF-AM, a non-fluorescent dye, is, as an ester, capable of crossing the membrane. The actual dye, which is incapable of crossing the membrane, is released inside the cell by esterases.
After this 20-minute incubation, the loading buffer, which comprises NH4Cl and free BCECF-AM, is removed by washing three times in the cell washing device (Tecan Columbus), each wash being performed with 400 μl of washing buffer (133.8 mM of choline chloride, 4.7 mM of KCl, 1.25 mM of MgCl2, 1.25 mM of CaCl2, 0.97 mM of K2HPO4, 0.23 mM of KH2PO4, 5 mM of HEPES and 5 mM of glucose; pH 7.4 (adjusted with KOH)). The residual volume remaining in the wells is 90 μl (possibly between 50 and 125 μl). This washing step removes the free BCECF-AM and results in an intracellular acidification (pHi of 6.3-6.4) due to the removal of the external ammonium ions.
As the equilibrium of the intracellular ammonium with the aqueous ammonia and the protons, by removal of the extracellular ammonium and by the subsequent immediate crossing of the aqueous ammonia across the cell membrane, is disrupted, the washing process results in intracellular protons remaining, which is the cause of the intracellular acidification. This acidification can result finally in the death of the cells if it lasts long enough. It is important here for the washing buffer to be free of sodium (<1 mM), otherwise the extracellular sodium ions would result in an immediate increase in the pHi on account of the activity of the cloned NHE isoforms. It is also important for all the buffers used (loading buffer, washing buffer and regeneration buffer) not to contain any HCO3-ions, otherwise the presence of bicarbonate would result in the activation of bicarbonate-dependent systems that disrupt the pHi regulation, which systems are contained in the LAP-1 parental cell line.
The microtiter plates containing acidified cells are then transferred (up to 20 minutes after the acidification) to the FLIPR. In the FLIPR, the intracellular fluorescent dye is activated with light of a wavelength of 488 nm, which is generated by an argon laser, and the measuring parameters (laser power, illumination time and diaphragm of the […] camera integrated into the FLIPR) are chosen such that the average value of the fluorescent signal per well is between 30,000 and 35,000 relative fluorescence units.
The actual measurement in the FLIPR starts with a photograph being taken by the CCD camera every two seconds under software control. After 10 seconds, the increase in the intracellular pH is initiated by adding 90 μl of regeneration buffer (133.8 mM of NaCl, 4.7 mM of KCl, 1.25 mM of MgCl2, 1.25 mM of CaCl2, 0.97 mM of K2HPO4, 0.23 mM of KH2PO4, 10 mM of HEPES and 5 mM of glucose; pH 7.4 (adjusted with NaOH)) using a 96-well pipette device incorporated into the FLIPR. Some wells, to which is added pure regeneration buffer, serve as positive controls (100% NHE activity). […]

Where a name gives a salt, the structure may show the parent alone.

T1 sequence (P19634 whole entry): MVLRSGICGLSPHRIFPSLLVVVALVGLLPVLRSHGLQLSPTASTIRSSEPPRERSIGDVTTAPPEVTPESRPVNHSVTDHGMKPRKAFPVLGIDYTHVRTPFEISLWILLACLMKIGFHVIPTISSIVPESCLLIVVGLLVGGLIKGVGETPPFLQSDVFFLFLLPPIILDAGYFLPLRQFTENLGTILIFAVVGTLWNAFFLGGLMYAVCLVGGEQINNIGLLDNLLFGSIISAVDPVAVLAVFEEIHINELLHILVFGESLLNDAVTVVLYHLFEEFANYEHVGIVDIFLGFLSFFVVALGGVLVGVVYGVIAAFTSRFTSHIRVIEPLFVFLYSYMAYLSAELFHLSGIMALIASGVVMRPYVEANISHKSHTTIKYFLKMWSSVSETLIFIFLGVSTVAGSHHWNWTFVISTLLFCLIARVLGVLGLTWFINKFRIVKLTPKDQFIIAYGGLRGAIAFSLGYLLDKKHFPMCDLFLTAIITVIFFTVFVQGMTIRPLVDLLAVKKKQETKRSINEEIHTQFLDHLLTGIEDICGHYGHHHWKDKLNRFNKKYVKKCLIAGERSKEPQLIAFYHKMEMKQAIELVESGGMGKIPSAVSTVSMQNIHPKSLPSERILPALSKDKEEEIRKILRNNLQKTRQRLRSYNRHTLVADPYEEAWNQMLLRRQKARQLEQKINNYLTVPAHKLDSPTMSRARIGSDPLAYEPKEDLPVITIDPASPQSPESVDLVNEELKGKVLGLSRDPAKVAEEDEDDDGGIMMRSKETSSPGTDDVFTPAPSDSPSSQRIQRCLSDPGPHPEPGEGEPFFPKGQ

Regarding `Cl.NC(N)=NC(=O)c1cn(-c2nccc3ccccc23)c2ccccc12` [Example 1, 3-Guanidinocarbonyl-1-(isoquinol-1-yl)-1H-indole hydrochloride], the melting point was found to be 262 °C. Also, the IC50 on NHE1 stood at 14 nM.
The compound `Cl.NC(N)=NC(=O)c1cn(-c2ccnc3ccccc23)c2ccccc12` [Example 2, 3-Guanidinocarbonyl-1-(quinol-4-yl)-1H-indole hydrochloride] came in with a melting point of 270 °C. At NHE1, this compound had an IC50 of 4 nM.
On NHE1, `NC(N)=NC(=O)c1cn(-c2ccc3ccccc3n2)c2ccccc12` [Example 3, 3-Guanidinocarbonyl-1-(quinol-2-yl)-1H-indole hydrochloride] showed an IC50 of 535 nM.
In turn, `Cc1ccc2c(c1)c(C(=O)N=C(N)N)cn2-c1nccc2ccccc12.Cl` [Example 4, 3-Guanidinocarbonyl-1-(isoquinol-1-yl)-5-methyl-1H-indole hydrochloride] yielded a melting point of 268 °C. The compound also registered an IC50 against NHE1 of 200 nM.
The like results for `Cc1ccc2c(c1)c(C(=O)N=C(N)N)cn2-c1ccc2ccccc2n1.Cl` [Example 5, 3-Guanidinocarbonyl-5-methyl-1-(quinol-2-yl)-1H-indole hydrochloride] were, in that order, 268 °C and 4980 nM.
As for `Cc1ccc2c(c1)c(C(=O)N=C(N)N)cn2-c1ccnc2ccccc12.Cl` [Example 6, 3-Guanidinocarbonyl-5-methyl-1-(quinol-4-yl)-1H-indole hydrochloride], the melting point was 268 °C. The compound also yielded an IC50 at NHE1 of 206 nM.
The like results for `Cl.NC(N)=NC(=O)c1cn(-c2cnc3ccccc3c2)c2ccccc12` [Example 7, 3-Guanidinocarbonyl-1-(quinol-3-yl)-1H-indole hydrochloride] were, in that order, 268 °C and 433 nM.
On the same counts, the results for `Cl.NC(N)=NC(=O)c1cn(-c2ccc3ncccc3c2)c2ccccc12` [Example 8, 3-Guanidinocarbonyl-1-(quinol-6-yl)-1H-indole hydrochloride] are 268 °C and 143 nM.
On the same counts, the results for `N=C(N)NC(=O)c1cn(-c2cccc3cccnc23)c2ccccc12` [Example 9, 3-Guanidinocarbonyl-1-(quinol-8-yl)-1H-indole] are 172 °C and 275 nM.
On to `N=C(N)NC(=O)c1cn(-c2cc3ccccc3cn2)c2ccccc12` [Example 10, 3-Guanidinocarbonyl-1-(isoquinol-3-yl)-1H-indole hydrochloride], for which the IC50 at NHE1 amounted to 1870 nM.
In the case of `COc1ccc2c(C(=O)NC(=N)N)cn(-c3ccnc4ccccc34)c2c1` [Example 11, 3-Guanidinocarbonyl-6-methoxy-1-(quinol-4-yl)-1H-indole dihydrochloride], at NHE1, the midpoint of inhibition, the IC50, lay at 47 nM.
`N=C(N)NC(=O)c1cn(-c2ccnc3ccccc23)c2cc(F)ccc12` [Example 12, 6-Fluoro-3-guanidinocarbonyl-1-(quinol-4-yl)-1H-indole hydrochloride] gave an IC50 on NHE1 of 76 nM.
Same read-out and setting: as for `N=C(N)NC(=O)c1cn(-c2ccnc3ccccc23)c2ccc(F)cc12` [Example 13, 5-Fluoro-3-guanidinocarbonyl-1-(quinol-4-yl)-1H-indole hydrochloride], the figure is 39 nM.
On the same count and under the same terms, for `N=C(N)NC(=O)c1cn(-c2ccnc3ccccc23)c2ccc(Cl)cc12` [Example 14, 5-Chloro-3-guanidinocarbonyl-1-(quinolin-4-yl)-1H-indole] the value was 2460 nM; for `NC(N)=NC(=O)c1cn(-c2cnnc3ccccc23)c2ccccc12` [Example 15, N-[1-(Cinnolin-4-yl)-1H-indole-3-carbonyl]-guanidine trifluoroacetate], 1.5 nM.
On the same count and under the same terms, as for `COc1ccc2c(c1)c(C(=O)N=C(N)N)c(C)n2-c1cnnc2ccccc12` [Example 16, N-[1-(Cinnolin-4-yl)-5-methoxy-2-meth-yl-1H-indole-3-carbonyl]-guani-dine trifluoroacetate], the figure is 1670 nM.
